Data reported in US10611765B2, “Pyrrolopyrimidine derivatives as Mps1/TTK kinase inhibitors” (Ohio State Innovation Foundation, priority 2014, dated 2020).
Where two headings read alike, the source gives them in different places.

What was measured:
[1] = system: panel of breast cancer cell lines; assay: Anti-proliferative assays, panel of BC cell lines (overall statements); assay type: cell-based; conditions: in some or all of the cell based assays in the panel
Procedure: This example describes the development of novel small molecule Mps1/TTK inhibitors as targeted therapies for TNBC and other aggressive BC using drug discovery technologies. Using computational modeling, medicinal chemistry, biochemistry and cell culture assays, the inventors have identified novel small molecules as potential Mps1/TTK inhibitors. The compounds were evaluated in anti-proliferative assays of a panel of 15 BC cell lines and further examined for their ability to inhibit a variety of Mps1-dependent biological functions.
(§1) The anti-proliferative effects and IC50 values of the compounds in the BC cell line panel were determined by MTS assay.
(§2) The cells, except Sk-Br-3, AU565 and BT-474 were maintained in a mixture of Dulbecco's modified Eagle's medium and Ham's F12 medium (1:1) (DMEM/F12) without phenol red supplemented with 5% fetal bovine serum (FBS) and 1× antibiotic-antimycotic (100 U/mL penicillin G sodium, 100 μg/mL streptomycin sulfate and 0.25 μg/mL amphotericin B) and were plated separately in flasks in a humidified incubator (5% CO2: 95% air, 37° C.). The media used for Sk-Br-3, AU565 and BT-474 cell lines was described in (1) Brueggemeier et al., J. Steroid Biochem. Mol. Biol., 2005; 95:129-136; and (2) Diaz-Cruz et al., J. Clin. Endocrinol. Metab., 2005; 90:2563-2570. The media were changed every 2-days. When the cells grew to about 80% confluence, cells were washed twice with calcium- and magnesium-free phosphate-buffered saline (PBS, pH 7.4), and then trypsinized with 0.05% trypsin-5.3 mm EDTA. The trypsinization was stopped by addition of culture medium with 5% FBS. After centrifugation, the dissociated cells were resuspended in the same medium and subcultured into 75-cm^2 culture flasks at a ratio of 1:5 flasks.
(§3) The BC cells were seeded at the density of 1,000 cells per well (100 μL) into 96 well plate in DMEM/F-12 (1:1), supplemented with 5% (v/v) FCS and incubated overnight at 37° C. Test compounds are solubilized in dimethyl sulfoxide (DMSO), diluted in cell culture medium to a range of final assay concentrations of 1 nM to 10 μM, added to cells and incubated for 7 days at 37° C. The medium including the test compound are refreshed at days 3 and 5. The MTS assay are carried out by using the CellTiter 96® AQueous One Solution Cell Proliferation Assay kit following the manufacturer's instruction.

BT-474 = assay: MTS anti-proliferative assay, BT-474; assay type: cell-based; conditions: BT-474, luminal B, treatment for 7 days
Procedure: as §1, §2, §3

MDA-MB-436 = assay: MTS anti-proliferative assay, MDA-MB-436; assay type: cell-based; conditions: MDA-MB-436, TNBC, basal B, treatment for 7 days
Procedure: as §1
(§4) The media were changed every 2-days. When the cells grew to about 80% confluence, cells were washed twice with calcium- and magnesium-free phosphate-buffered saline (PBS, pH 7.4), and then trypsinized with 0.05% trypsin-5.3 mm EDTA. The trypsinization was stopped by addition of culture medium with 5% FBS.
as §3

HCC1937 = assay: MTS anti-proliferative assay, HCC1937; assay type: cell-based; conditions: HCC1937, TNBC, basal, treatment for 7 days
Procedure: as §1, §2, §3

[2] = molecular target: T1, Mps1/TTK kinase (recombinant GST-Mps1) (Homo sapiens, UniProt P33981); assay: Mps1 in vitro kinase assay with Cetn2 substrate; assay type: biochemical
T1 sequence (P33981 1-857): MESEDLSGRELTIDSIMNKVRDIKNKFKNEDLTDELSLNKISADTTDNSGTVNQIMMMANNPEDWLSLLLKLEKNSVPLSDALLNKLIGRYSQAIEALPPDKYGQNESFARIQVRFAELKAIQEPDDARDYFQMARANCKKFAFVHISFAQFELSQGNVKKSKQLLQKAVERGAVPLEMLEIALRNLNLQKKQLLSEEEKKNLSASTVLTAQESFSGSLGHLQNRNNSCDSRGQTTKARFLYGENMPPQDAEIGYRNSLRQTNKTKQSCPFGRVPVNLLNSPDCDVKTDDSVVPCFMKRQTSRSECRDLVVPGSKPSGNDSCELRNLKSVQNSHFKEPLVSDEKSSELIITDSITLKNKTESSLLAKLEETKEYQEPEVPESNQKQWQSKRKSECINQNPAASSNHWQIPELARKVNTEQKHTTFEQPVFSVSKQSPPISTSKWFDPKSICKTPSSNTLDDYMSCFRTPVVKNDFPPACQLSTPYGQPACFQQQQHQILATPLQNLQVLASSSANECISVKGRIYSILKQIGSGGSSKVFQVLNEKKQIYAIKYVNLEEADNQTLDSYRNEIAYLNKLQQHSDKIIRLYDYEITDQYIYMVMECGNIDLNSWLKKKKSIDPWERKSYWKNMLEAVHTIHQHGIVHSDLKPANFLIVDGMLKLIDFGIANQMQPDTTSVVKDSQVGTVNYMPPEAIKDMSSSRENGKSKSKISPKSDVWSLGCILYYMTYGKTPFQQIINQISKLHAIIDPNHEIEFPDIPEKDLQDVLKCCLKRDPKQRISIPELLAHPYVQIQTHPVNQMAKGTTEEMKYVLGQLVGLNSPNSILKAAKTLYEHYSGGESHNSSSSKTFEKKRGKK
Procedure: To determine the efficacy of the compounds against Mps1/TTK kinase activity, assays were performed as previously described (11) using recombinant Mps1, Cetn2 (specific substrate), and varying concentration of compound.

CAMA-1 = assay: MTS anti-proliferative assay, CAMA-1; assay type: cell-based; conditions: CAMA-1, luminal, treatment for 7 days
Procedure: as §1, §2, §3

Hs578T = assay: MTS anti-proliferative assay, Hs578T; assay type: cell-based; conditions: TNBC, basal B, treatment for 7 days
Procedure: as §1, §2, §3

AU565 = assay: MTS anti-proliferative assay, AU565; assay type: cell-based; conditions: AU565, luminal, treatment for 7 days
Procedure: as §1, §2, §3

BT-549 = assay: MTS anti-proliferative assay, BT-549; assay type: cell-based; conditions: BT-549, TNBC, basal B, treatment for 7 days
Procedure: as §1, §2, §3

CAL-51 = assay: MTS anti-proliferative assay, CAL-51; assay type: cell-based; conditions: CAL-51, TNBC, basal, treatment for 7 days
Procedure: as §1, §2, §3

MDA-MB-468 = assay: MTS anti-proliferative assay, MDA-MB-468; assay type: cell-based; conditions: MDA-MB-468, TNBC, basal B, treatment for 7 days
Procedure: as §1, §2, §3

T47D = assay: MTS anti-proliferative assay, T47D; assay type: cell-based; conditions: luminal, treatment for 7 days
Procedure: as §1, §2, §3

MDA-MB-231 = assay: MTS anti-proliferative assay, MDA-MB-231; assay type: cell-based; conditions: MDA-MB-231, TNBC, basal B, treatment for 7 days
Procedure: as §1, §2, §3

MDA-MB-453 = assay: MTS anti-proliferative assay, MDA-MB-453; assay type: cell-based; conditions: MDA-MB-453, luminal A, treatment for 7 days
Procedure: as §1, §4, §3

BT-20 = assay: MTS anti-proliferative assay, BT-20; assay type: cell-based; conditions: BT-20, TNBC, basal A, treatment for 7 days
Procedure: as §1, §2, §3

Sk-Br-3 = assay: MTS anti-proliferative assay, Sk-Br-3; assay type: cell-based; conditions: Sk-Br-3, luminal, treatment for 7 days
Procedure: as §1, §2, §3

MCF-7 = assay: MTS anti-proliferative assay, MCF-7; assay type: cell-based; conditions: MCF-7, luminal A, treatment for 7 days
Procedure: as §1, §2, §3

Cal-51 cells = assay: Centriole assembly / centrosome amplification assay, Cal-51; assay type: cell-based; conditions: Cal-51, at 10 μM
Procedure: (§5) For these cell biology assays, cells were plated onto poly-L-lysine coated coverslips in 24 well dishes using the medium and growth conditions described above, but using medium containing phenol red. At 24 hours after plating, compounds (or the equivalent amount of DMSO) were added to individual wells at various concentrations. Cells were incubated for 24 hours at 37° C. BrdU was added during the last 4 hours of the incubation, after which cells were fixed in pre-chilled methanol at −20 OC for 10 minutes, stained with centrosome markers, then treated with acid to denature chromosomal DNA prior to staining for BrdU. To assess centriole biogenesis, centriole number was determined for triplicate samples in cells that had entered S-phase as judged by incorporation of BrdU. Primary antibodies used were mouse anti-γTubulin (pericentriolar material) and rabbit anti-Centrin 2 (centrioles). Secondary antibodies used were Alexa594-conjugated donkey anti-mouse and Alexa488-conjugated donkey anti-rabbit.
For centriole assembly assays, Cal-51 and MDA-MB-468 cells were treated with candidate compounds prior to a short pulse of BrdU. Because the centriole pair is replicated at the G1/S transition, compounds that block centrosome assembly will lead to an increased number of BrdU-positive cells with two centrioles. In addition, like many breast cancer cells Cal-51 and MDA-MB-468 are capable of centrosome amplification, and compounds that block this centrosome amplification should reduce the number of BrdU-positive cells with more than four centrioles.

[3] = system: S-phase (BrdU-positive) cells; assay: Centriole number in S-phase cells (preliminary investigations); assay type: cell-based; conditions: drug for 20 hours, then 4 hour pulse of BrdU
Procedure: as §5
For centriole assembly assays, Cal-51 and MDA-MB-468 cells were treated with candidate compounds prior to a short pulse of BrdU. Because the centriole pair is replicated at the G1/S transition, compounds that block centrosome assembly will lead to an increased number of BrdU-positive cells with two centrioles. […]

[4] = additional investigations (text to Table 2), read-out: IC50, in vitro kinase activity of Mps1
[5] = in vitro kinase assay with Cetn2 substrate, Table 2, read-out: IC50 w/Cetn 2

## COc1ccccc1Nc1nc(Nc2ccccc2S(=O)(=O)C(C)C)c2cc[nH]c2n1 [Compound 10, N4-(2-(isopropylsulfonyl)phenyl)-N2-(2-methoxyphenyl)-7H-pyrrolo-[2,3-d]pyrimidine-2,4-diamine]
[1]
  potency as compared to Mps1-IN-1: significantly more potent
BT-474; Homo sapiens, 168 h
  IC50: 720 nM
MDA-MB-436; Homo sapiens, 168 h
  IC50: 1290 nM
HCC1937; Homo sapiens, 168 h
  IC50: 990 nM
[2]; [4]
  IC50: 3400 nM
[2]; [5]
  IC50: 3420 nM
CAMA-1; Homo sapiens, 168 h
  IC50: 1550 nM
Hs578T; Homo sapiens, Hs-578T, 168 h
  IC50: > 10000 nM
AU565; Homo sapiens, 168 h
  IC50: > 10000 nM
BT-549; Homo sapiens, 168 h
  IC50: 1600 nM
CAL-51; Homo sapiens, 168 h
  IC50: 1500 nM
MDA-MB-468; Homo sapiens, 168 h
  IC50: 1860 nM
T47D; Homo sapiens, 168 h
  IC50: 340 nM
MDA-MB-231; Homo sapiens, 168 h
  IC50: 450 nM
MDA-MB-453; Homo sapiens, 168 h
  IC50: > 10000 nM
BT-20; Homo sapiens, 168 h
  IC50: 50 nM
Sk-Br-3; Homo sapiens, 168 h
  IC50: 970 nM
MCF-7; Homo sapiens, MCF7, 168 h
  IC50: 350 nM

## COc1cc(N2CCOCC2)ccc1Nc1nc(Nc2ccccc2S(=O)(=O)C(C)C)c2cc[nH]c2n1 [Compound 11, N4-(2-(isopropylsulfonyl)phenyl)-N2-(2-methoxy-4-morpholinophenyl)-7H-pyrrolo[2,3-d]pyrimidine-2,4-diamine]
[1]
  potency as compared to Mps1-IN-1: significantly more potent
BT-474; Homo sapiens, 168 h
  IC50: 330 nM
MDA-MB-436; Homo sapiens, 168 h
  IC50: 1230 nM
HCC1937; Homo sapiens, 168 h
  IC50: 1100 nM
[2]; [4]
  IC50: 13100 nM
[2]; [5]
  IC50: 13100 nM
CAMA-1; Homo sapiens, 168 h
  IC50: 780 nM
Hs578T; Homo sapiens, Hs-578T, 168 h
  IC50: > 10000 nM
BT-549; Homo sapiens, 168 h
  IC50: 1310 nM
CAL-51; Homo sapiens, 168 h
  IC50: 300 nM
MDA-MB-468; Homo sapiens, 168 h
  IC50: 360 nM
MDA-MB-231; Homo sapiens, 168 h
  IC50: > 10000 nM
MDA-MB-453; Homo sapiens, 168 h
  IC50: > 10000 nM
BT-20; Homo sapiens, 168 h
  IC50: 1500 nM
Sk-Br-3; Homo sapiens, 168 h
  IC50: 370 nM
MCF-7; Homo sapiens, MCF7, 168 h
  IC50: 400 nM

## COc1cc(N2CCC(O)CC2)ccc1Nc1cc(Nc2ccccc2S(=O)(=O)C(C)C)c2cc[nH]c2n1 [Mps1-IN-1, reference compound]
BT-474
  IC50: > 10000 nM
MDA-MB-436
  IC50: > 10000 nM
HCC1937
  IC50: > 10000 nM
CAMA-1
  IC50: > 10000 nM
Hs578T
  IC50: > 10000 nM
AU565
  IC50: > 10000 nM
BT-549
  IC50: 2440 nM
CAL-51
  IC50: 1840 nM
Cal-51 cells
  effect on centriole assembly: little effect
  effect on centrosome amplification: little effect
[3]
  effect on centriole assembly: little effect
MDA-MB-468
  IC50: 1850 nM
T47D
  IC50: > 10000 nM
MDA-MB-231
  IC50: > 10000 nM
MDA-MB-453
  IC50: > 10000 nM
BT-20
  IC50: > 10000 nM
Sk-Br-3
  IC50: > 10000 nM
MCF-7
  IC50: > 10000 nM

## AZ3146
Cal-51 cells
  effect on centriole assembly: little effect
  effect on centrosome amplification: little effect
[3]
  effect on centriole assembly: little effect
